Results published in patent US20090191253A2 (Creabilis Therapeutics S.P.A., priority 2005, published 2009).

Legend:
JNK1 = target: T1, JNK1 (Homo sapiens, UniProt P45983); test: Kinase inhibition profiling JNK1 (ELISA); format: biochemical
T1 construct: Human JNK1 containing 364 amino acids was expressed; His (C); made in house; host or cells: E. coli
Procedure: (§1) Each test compound was weighed and dissolved in DMSO to make 1 mM stock solution. The stock solution was diluted with DMSO to achieve 20 μM. The compound solution was diluted with the assay buffer to achieve 0.8 μM.

TrkC = TrkC (Homo sapiens, UniProt Q16288); test: Kinase inhibition profiling TrkC (ELISA)
Procedure: (§2) In particular, the target kinases were Tyrosine kinases and Serine/Threonine kinases.
as §1

[1] = test system: bovine aorta smooth muscle cells (BASMC); test: Proliferation assay, HMGB1-induced BASMC proliferation; format: cell-based; details: K-252a 3, 10, 30, 100 or 300 nM; HMGB1 25 ng/ml (1 nM); days 1-4
Procedure: Proliferation assays were performed using an already described and validated method (1). BASMC cells (bovine aorta smooth muscle cells) were seeded in 6-well plates (10^5 cells/well) and grown in RPMI medium supplemented with 20% FCS. After 24 h, the medium was replaced with serum-free RPMI and cell were then starved for 16 hours to synchronize the cell population. […] Each experimental point represents the mean+/−SD of triplicate determinations. The experiment was repeated three times. BASMC cell proliferation was determined by detaching the cells from the plate at the indicated times (on days 1, 2, 3, and 4 of culturing) and counting the Trypan-blue excluding cells under the microscope.

TNK1 = target: T2, TNK1 (Homo sapiens, UniProt Q13470); test: Kinase inhibition profiling TNK1 (ELISA); format: biochemical
T2 construct: Kinase domain (KD) of human TNK [110-394 amino; made in house; host or cells: baculovirus expression system
T2 sequence (Q13470 110-394): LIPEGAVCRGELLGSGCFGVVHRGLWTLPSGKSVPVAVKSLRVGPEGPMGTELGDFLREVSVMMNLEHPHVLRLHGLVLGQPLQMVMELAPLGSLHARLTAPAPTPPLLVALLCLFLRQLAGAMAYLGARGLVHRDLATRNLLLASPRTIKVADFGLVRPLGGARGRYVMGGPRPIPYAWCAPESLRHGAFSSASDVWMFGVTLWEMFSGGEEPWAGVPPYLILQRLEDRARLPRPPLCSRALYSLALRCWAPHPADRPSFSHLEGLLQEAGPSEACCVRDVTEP
Procedure: as §2, §1

PKCε = target: T3, PKCε (Homo sapiens, UniProt Q02156); test: Kinase inhibition profiling PKCε (IMAP); format: biochemical
T3 construct: made in house; host or cells: baculovirus expression system
T3 sequence (Q02156 whole entry): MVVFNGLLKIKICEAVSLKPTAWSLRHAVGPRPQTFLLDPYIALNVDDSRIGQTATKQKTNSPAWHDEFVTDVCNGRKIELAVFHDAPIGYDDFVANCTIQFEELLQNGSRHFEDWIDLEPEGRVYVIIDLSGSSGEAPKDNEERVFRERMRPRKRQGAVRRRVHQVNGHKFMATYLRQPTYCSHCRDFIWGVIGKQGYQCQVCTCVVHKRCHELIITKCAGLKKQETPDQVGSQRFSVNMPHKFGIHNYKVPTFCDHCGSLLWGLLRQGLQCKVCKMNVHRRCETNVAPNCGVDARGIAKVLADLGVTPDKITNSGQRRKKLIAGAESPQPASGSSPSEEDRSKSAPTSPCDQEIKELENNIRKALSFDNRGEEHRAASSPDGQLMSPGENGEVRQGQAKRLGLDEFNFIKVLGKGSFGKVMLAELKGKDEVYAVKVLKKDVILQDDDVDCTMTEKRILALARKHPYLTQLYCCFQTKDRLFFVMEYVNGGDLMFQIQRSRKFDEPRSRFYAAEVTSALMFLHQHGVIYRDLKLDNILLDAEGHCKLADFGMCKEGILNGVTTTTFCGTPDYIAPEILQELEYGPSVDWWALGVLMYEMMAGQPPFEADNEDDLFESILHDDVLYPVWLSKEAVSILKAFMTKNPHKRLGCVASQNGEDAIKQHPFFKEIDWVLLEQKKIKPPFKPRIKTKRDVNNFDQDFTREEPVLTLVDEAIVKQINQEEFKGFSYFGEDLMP
Procedure: as §1

FYN = target: T4, FYN (Homo sapiens, UniProt P06241); test: Kinase inhibition profiling FYN (ELISA); format: biochemical; further: ATP 20 µM
T4 construct: made in house; host or cells: baculovirus expression system
Procedure: as §2, §1

HER2 = target: T5, HER2 (Homo sapiens, UniProt P04626); test: Kinase inhibition profiling HER2 (ELISA); format: biochemical; further: ATP 5 µM
T5 construct: Cytoplasmic domain of human HER2 [676-1255 amino; made in house; host or cells: baculovirus expression system
Procedure: as §1

AXL = target: T6, AXL (Homo sapiens, UniProt P30530); test: Kinase inhibition profiling AXL (ELISA); format: biochemical
T6 construct: made in house; host or cells: baculovirus expression system
Procedure: as §2, §1

EphB2 = target: T7, EphB2 (Homo sapiens, UniProt P29323); test: Kinase inhibition profiling EphB2 (ELISA); format: biochemical
T7 construct: Cytoplasmic domain of human EphB2 [581-987 amino; made in house; host or cells: baculovirus expression system
Procedure: as §1

Erk2 = target: T8, Erk2 (Homo sapiens, UniProt P28482); test: Kinase inhibition profiling Erk2 (IMAP); format: biochemical
T8 construct: Human Erk2 containing 360 amino acids was expressed; His (N); made in house; host or cells: E. coli
T8 sequence (P28482 whole entry): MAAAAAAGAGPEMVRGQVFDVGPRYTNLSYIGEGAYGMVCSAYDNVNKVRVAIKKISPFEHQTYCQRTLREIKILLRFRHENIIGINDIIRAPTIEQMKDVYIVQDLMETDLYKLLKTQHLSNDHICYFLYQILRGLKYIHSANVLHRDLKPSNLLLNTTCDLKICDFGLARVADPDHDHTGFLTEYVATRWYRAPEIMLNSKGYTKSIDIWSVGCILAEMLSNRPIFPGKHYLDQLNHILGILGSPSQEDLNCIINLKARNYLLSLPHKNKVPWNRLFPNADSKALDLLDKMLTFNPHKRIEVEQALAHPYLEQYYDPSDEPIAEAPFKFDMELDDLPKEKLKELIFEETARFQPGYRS
Procedure: as §1

FLT3 = target: T9, FLT3 (Homo sapiens, UniProt P36888); test: Kinase inhibition profiling FLT3 (ELISA); format: biochemical
T9 construct: made in house; host or cells: baculovirus expression system
Procedure: as §1

EGFR = target: T10, EGFR (Homo sapiens, UniProt P00533); test: Kinase inhibition profiling EGFR (ELISA); format: biochemical; further: ATP 5 µM
T10 construct: Cytoplasmic domain of human EGFR [669-1210 amino; made in house; host or cells: baculovirus expression system
Procedure: as §1

CaMK2α = target: T11, CaMK2α (Homo sapiens, UniProt Q9UQM7); test: Kinase inhibition profiling CaMK2α (IMAP); format: biochemical
T11 construct: His (N); made in house; host or cells: baculovirus expression system
Procedure: as §2, §1

SRC = target: T12, SRC (Homo sapiens, UniProt P12931); test: Kinase inhibition profiling SRC (ELISA); format: biochemical
T12 construct: made in house; host or cells: baculovirus expression system
Procedure: as §1

PKACα = target: T13, PKACα (Homo sapiens, UniProt P17612); test: Kinase inhibition profiling PKACα (IMAP); format: biochemical
T13 construct: made in house; host or cells: baculovirus expression system
Procedure: as §2, §1

BRK = target: T14, BRK (Homo sapiens, UniProt Q13882); test: Kinase inhibition profiling BRK (ELISA); format: biochemical
T14 construct: made in house; host or cells: baculovirus expression system
T14 sequence (Q13882 2-450): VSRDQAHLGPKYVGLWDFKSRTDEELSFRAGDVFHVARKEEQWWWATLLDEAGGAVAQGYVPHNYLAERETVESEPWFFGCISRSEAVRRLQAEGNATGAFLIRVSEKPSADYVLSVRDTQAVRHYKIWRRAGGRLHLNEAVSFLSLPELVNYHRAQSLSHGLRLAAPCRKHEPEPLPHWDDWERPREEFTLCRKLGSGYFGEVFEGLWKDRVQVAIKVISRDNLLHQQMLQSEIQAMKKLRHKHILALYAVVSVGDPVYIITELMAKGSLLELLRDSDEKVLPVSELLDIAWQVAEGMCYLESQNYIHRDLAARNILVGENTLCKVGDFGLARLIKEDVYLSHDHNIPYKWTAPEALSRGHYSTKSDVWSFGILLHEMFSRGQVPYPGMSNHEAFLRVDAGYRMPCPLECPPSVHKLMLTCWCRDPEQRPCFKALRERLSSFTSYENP
Procedure: as §2, §1

FLT1 = target: T15, FLT1 (Homo sapiens, UniProt P17948); test: Kinase inhibition profiling FLT1 (ELISA); format: biochemical; further: ATP 20 µM
T15 construct: Cytoplasmic domain of human FLT1 [781-1338 amino; made in house; host or cells: baculovirus expression system
Procedure: as §2, §1

HER4 = target: T16, HER4 (Homo sapiens, UniProt Q15303); test: Kinase inhibition profiling HER4 (ELISA); format: biochemical
T16 construct: Cytoplasmic domain of human HER4 [676-1308 amino; made in house; host or cells: baculovirus expression system
T16 sequence (Q15303 676-1308): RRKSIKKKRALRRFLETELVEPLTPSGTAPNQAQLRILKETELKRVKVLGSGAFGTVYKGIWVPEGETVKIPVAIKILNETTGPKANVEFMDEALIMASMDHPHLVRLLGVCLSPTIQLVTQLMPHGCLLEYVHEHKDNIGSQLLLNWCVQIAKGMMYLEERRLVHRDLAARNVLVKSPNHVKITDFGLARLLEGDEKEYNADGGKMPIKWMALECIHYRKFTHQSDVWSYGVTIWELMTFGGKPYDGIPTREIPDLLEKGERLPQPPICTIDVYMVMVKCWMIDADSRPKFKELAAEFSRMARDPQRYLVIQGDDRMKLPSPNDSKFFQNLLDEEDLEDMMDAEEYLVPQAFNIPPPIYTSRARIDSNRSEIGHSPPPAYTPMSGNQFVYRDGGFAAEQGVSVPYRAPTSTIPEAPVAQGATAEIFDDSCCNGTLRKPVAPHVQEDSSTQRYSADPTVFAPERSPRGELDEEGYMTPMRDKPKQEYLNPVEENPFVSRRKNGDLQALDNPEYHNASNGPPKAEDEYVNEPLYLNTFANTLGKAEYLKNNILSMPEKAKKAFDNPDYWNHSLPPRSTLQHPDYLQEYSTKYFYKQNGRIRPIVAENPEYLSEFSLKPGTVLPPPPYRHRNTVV
Procedure: as §1

LCK = target: T17, LCK (Homo sapiens, UniProt P06239); test: Kinase inhibition profiling LCK (ELISA); format: biochemical
T17 construct: made in house; host or cells: baculovirus expression system
T17 sequence (P06239 whole entry): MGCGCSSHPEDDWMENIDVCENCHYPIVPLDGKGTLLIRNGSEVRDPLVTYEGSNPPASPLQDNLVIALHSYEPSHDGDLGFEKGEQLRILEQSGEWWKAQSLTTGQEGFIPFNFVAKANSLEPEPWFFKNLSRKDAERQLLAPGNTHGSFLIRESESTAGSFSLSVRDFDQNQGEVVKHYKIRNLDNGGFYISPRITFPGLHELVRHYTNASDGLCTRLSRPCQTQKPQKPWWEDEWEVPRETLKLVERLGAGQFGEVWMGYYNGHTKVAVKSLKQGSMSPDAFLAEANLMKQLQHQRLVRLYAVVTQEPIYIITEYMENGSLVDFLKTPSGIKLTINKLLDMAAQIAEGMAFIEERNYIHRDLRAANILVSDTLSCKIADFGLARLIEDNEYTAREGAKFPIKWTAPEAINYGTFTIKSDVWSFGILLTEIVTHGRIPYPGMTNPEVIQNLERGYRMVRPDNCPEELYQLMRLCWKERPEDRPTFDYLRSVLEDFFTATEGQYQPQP
Procedure: as §2, §1

ALK = target: T18, ALK (Homo sapiens, UniProt Q9UM73); test: Kinase inhibition profiling ALK (ELISA); format: biochemical
T18 construct: Cytoplasmic domain of human ALK [1089-1620; His (N, cleaved yes); made in house; host or cells: baculovirus expression system
T18 sequence (Q9UM73 1089-1620): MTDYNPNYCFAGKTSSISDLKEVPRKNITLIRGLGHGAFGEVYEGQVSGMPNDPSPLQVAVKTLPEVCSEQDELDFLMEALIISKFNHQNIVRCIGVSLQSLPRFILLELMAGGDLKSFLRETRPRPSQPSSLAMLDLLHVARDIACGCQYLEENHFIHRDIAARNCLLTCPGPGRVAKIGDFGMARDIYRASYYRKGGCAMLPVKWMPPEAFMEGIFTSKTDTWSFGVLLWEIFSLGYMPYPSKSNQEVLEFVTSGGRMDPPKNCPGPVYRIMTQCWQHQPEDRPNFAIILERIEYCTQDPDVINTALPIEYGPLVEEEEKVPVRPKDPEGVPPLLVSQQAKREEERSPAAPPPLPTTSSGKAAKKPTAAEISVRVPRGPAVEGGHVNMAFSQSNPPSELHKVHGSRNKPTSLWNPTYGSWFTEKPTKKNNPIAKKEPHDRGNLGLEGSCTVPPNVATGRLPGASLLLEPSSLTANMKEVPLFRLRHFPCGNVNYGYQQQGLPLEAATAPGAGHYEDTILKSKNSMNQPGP
Procedure: as §1

CHK2 = target: T19, CHK2 (Homo sapiens, UniProt O96017); test: Kinase inhibition profiling CHK2 (IMAP); format: biochemical
T19 construct: His (N); made in house; host or cells: baculovirus expression system
T19 sequence (O96017 whole entry): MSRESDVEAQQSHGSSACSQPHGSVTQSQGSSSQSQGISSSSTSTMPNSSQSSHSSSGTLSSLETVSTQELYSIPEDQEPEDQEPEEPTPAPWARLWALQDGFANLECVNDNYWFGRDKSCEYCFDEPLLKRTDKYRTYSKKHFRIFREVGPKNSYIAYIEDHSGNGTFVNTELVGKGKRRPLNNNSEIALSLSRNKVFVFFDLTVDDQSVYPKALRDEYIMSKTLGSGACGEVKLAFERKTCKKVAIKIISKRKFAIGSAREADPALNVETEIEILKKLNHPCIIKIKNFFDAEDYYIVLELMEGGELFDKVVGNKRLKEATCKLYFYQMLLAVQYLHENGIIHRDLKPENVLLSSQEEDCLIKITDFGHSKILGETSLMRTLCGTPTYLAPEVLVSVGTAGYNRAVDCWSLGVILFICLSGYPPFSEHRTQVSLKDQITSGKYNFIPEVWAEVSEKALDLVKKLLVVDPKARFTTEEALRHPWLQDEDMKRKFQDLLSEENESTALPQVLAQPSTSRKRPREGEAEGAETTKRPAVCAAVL
Procedure: as §1

LYNb = target: T20, LYNb (Homo sapiens, UniProt P07948); test: Kinase inhibition profiling LYNb (ELISA); format: biochemical
T20 construct: made in house; host or cells: baculovirus expression system
Procedure: as §1

LYNa = target: T21, LYNa (Homo sapiens, UniProt P07948); test: Kinase inhibition profiling LYNa (ELISA); format: biochemical
T21 construct: made in house; host or cells: baculovirus expression system
T21 sequence (P07948 whole entry): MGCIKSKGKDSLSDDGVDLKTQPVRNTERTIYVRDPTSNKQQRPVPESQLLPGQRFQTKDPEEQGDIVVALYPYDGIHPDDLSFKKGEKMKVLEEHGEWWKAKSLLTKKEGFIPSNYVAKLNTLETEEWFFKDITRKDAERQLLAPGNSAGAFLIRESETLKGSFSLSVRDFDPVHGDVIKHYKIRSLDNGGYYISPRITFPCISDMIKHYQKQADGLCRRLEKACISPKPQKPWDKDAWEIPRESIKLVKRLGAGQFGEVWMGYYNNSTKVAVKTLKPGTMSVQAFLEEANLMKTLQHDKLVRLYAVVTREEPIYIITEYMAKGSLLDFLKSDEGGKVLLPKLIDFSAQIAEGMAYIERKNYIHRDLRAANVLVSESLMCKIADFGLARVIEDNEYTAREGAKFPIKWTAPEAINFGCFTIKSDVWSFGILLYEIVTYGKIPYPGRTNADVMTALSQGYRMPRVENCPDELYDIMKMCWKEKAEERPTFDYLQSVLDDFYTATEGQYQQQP
Procedure: as §1

CaMK4 = target: T22, CaMK4 (Homo sapiens, UniProt Q16566); test: Kinase inhibition profiling CaMK4 (IMAP); format: biochemical
T22 construct: His (N); made in house; host or cells: baculovirus expression system
Procedure: as §2, §1

ABL = target: T23, ABL (Homo sapiens, UniProt P00519); test: Kinase inhibition profiling ABL (ELISA); format: biochemical
T23 construct: made in house; host or cells: baculovirus expression system
Procedure: as §1

FMS(CSFR) = target: T24, FMS(CSFR) (Homo sapiens, UniProt P07333); test: Kinase inhibition profiling FMS(CSFR) (ELISA); format: biochemical
T24 construct: Cytoplasmic domain of human FMS [538-972 amino; made in house; host or cells: baculovirus expression system
Procedure: as §1

AurA = target: T25, AurA (Homo sapiens, UniProt O14965); test: Kinase inhibition profiling AurA (IMAP); format: biochemical
T25 construct: GST (N); made in house; host or cells: baculovirus expression system
T25 sequence (O14965 whole entry): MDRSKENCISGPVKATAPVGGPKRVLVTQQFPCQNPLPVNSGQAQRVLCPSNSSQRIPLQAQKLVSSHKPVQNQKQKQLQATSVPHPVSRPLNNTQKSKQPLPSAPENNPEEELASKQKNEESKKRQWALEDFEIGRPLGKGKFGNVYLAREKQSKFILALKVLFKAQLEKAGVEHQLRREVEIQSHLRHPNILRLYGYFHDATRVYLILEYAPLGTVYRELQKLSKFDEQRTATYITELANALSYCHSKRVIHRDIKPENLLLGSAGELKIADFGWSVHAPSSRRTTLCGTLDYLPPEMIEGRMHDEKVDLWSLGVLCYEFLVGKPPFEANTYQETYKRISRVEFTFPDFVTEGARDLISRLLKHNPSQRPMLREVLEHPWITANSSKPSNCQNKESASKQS
Procedure: as §1

KDR = target: T26, KDR (Homo sapiens, UniProt P35968); test: Kinase inhibition profiling KDR (ELISA); format: biochemical
T26 construct: Cytoplasmic domain of human KDR [790-1356 amino; made in house; host or cells: baculovirus expression system
Procedure: as §2, §1

p38α = target: T27, p38α (Homo sapiens, UniProt Q16539); test: Kinase inhibition profiling p38α (IMAP); format: biochemical
T27 construct: GST (N); made in house; host or cells: E. coli
Procedure: as §1

In the case of `COC(=O)[C@]1(O)CC2O[C@@]1(C)n1c3ccccc3c3c4c(c5c6ccccc6n2c5c31)C(=O)NC4` [K-252a], the inhibition at 0.2 µM (JNK1) is reported as 94.3%, the inhibition at 0.2 µM (TrkC) is reported as 94.4% and the “HMGB1-induced BASMC cell proliferation” value [1] is reported as “antagonizes BASMC cell proliferation at all the concentrations tested in a time-dependent fashion and in a nM range”. It also gave an inhibition at 0.2 µM (TNK1) of 94.8%, an inhibition at 0.2 µM (PKCε) of 60.9% and an inhibition at 0.2 µM (FYN) of 67.2%. The inhibition at 0.2 µM (HER2) was 7.7%, the inhibition at 0.2 µM (AXL) was 51.5% and the inhibition at 0.2 µM (EphB2) was 0.4%. The inhibition at 0.2 µM (Erk2) was 14.2%, the inhibition at 0.2 µM (FLT3) was 95.8% and the inhibition at 0.2 µM (EGFR) was 16.4%. The inhibition at 0.2 µM (CaMK2α) was 83.9%, the inhibition at 0.2 µM (SRC) was 20.6% and the inhibition at 0.2 µM (PKACα) was 69.4%. For the same compound, the inhibition at 0.2 µM (BRK) was 35.8%, the inhibition at 0.2 µM (FLT1) was 73.9% and the inhibition at 0.2 µM (HER4) was 39.4%. The inhibition at 0.2 µM (LCK) was 65.2%, the inhibition at 0.2 µM (ALK) was 69.5% and the inhibition at 0.2 µM (CHK2) was 93.9%. The inhibition at 0.2 µM (LYNb) was 51.2%, the inhibition at 0.2 µM (LYNa) was 58.9% and the inhibition at 0.2 µM (CaMK4) was 0%. It also gave an inhibition at 0.2 µM (ABL) of -14.2%, an inhibition at 0.2 µM (FMS(CSFR)) of 55.7% and an inhibition at 0.2 µM (AurA) of 91.9%. It also gave an inhibition at 0.2 µM (KDR) of 62.9% and an inhibition at 0.2 µM (p38α) of -1.5%.
